Experimental data from patent US5272175A, “Substituted tyrosyl diamide compounds” (priority 1992, dated 1993).
Structures can show the parent of a compound that is named as a salt. Where two headings read alike, the source gives them in different places.

How the values were obtained:
μ opioid receptors = μ opioid receptors (Rattus norvegicus, UniProt P33535); experiment: Opiate Binding Assay, displacement of 3[H]-DAMPGO from μ receptors
δ opioid receptors = δ opioid receptors (Rattus norvegicus, UniProt P33533); experiment: Opiate Binding Assay, displacement of 3[H]-DSLET from δ receptors; details: for Mean IC50 μ/δ Ratio: ratio of mean IC50 values for μ and δ, above 1.0 = more δ specific
mice [1] = experiment: Tail Flick Assay; format: in vivo, Male Charles River albino mice; details: Mus musculus, sc, subcutaneous, dose producing half maximum possible increase in latency (to 7.5 seconds)
Description: (§1) The "Tail Flick Assay" and the "Hot Plate Assay" (also known as the "Hind Paw Lick Assay") use thermal pain of transient duration, and are tests in which the pain threshold of the mice or rats being analyzed has not been altered. They are useful for evaluating the ability of a compound or drug to increase the animal's pain threshold (i.e. prolong response latencies), rather than to restore normal thresholds.
(§2) The heat-induced response to the Tail Flick Assay is a reflex reaction mediated at the level of the spinal cord. The heat-induced response to the Hot Plate Assay, however, is a more complex behavior requiring integration at higher centers in the brain. […]
(§3) Tail flick response latencies (defined as the time that elapsed between the onset of a high intensity beam of light and the reflex removal of the mouse's tail) and hot plate response latencies (defined as the time that elapsed between the placement of a mouse on a 55 degrees Celsius surface and a lick of the hind paw) were separately, but consecutively, measured before (baseline) and again at fixed intervals after subcutaneous administration of the Test Tyrosyl Diamide Compound, or after the administration of saline (controls). […] The significance of any increase in tail flick response latency or hot plate response latency is determined using analyses of variance. […]

mice [2] = experiment: Hot Plate Assay (Hind Paw Lick Assay); format: in vivo, Male Charles River albino mice; details: Mus musculus, sc, subcutaneous, 55 degrees Celsius, dose producing half maximum possible increase in latency (to 25 seconds)
Description: as §1, §2, §3

mice [3] = experiment: Writhing Assay (phenylbenzoquinone (PBQ)-induced writhing), analgesic activity; format: in vivo, CD Charles River mice; details: for ED50: Mus musculus, 50% of mice with writhes <= half control median
Description: The "Writhing Assay" is one of the most widely-used experimental procedures for measuring the analgesic activity of different narcotic and nonnarcotic analgesic agents, and involves the continuous, chemically-induced pain of visceral origin to an animal, such as a mouse or rat. [Gyires et al., Arch. int. Pharmacodyn, 267, 131-140 (1984); C. Vander Wende et al., Fed. Proc., 15, 494 (1956); Koster et al., Fed. Proc., 18, 412 (1959); and Witken et al., J. Pharmacol. Exp. Ther., 133, 400-408 (1961).] Chemicals which may be used to induce this pain include phenylbenzoquinone (PBQ) and acetic acid. As a result of the chemical irritation to the animal, a characteristic stretching and writhing of the animal (dorsiflexion of the animal's back, extension of its hindlimbs and the strong contraction of its abdominal musculature) will generally occur. […] Drugs which reduce the number of writhes of the animal appear to restore the normal nociceptive threshold of the animal.
This assay was conducted generally in the manner described by R. I. Taber, "Predictive Value of Analgesic Assays in Mice and Rats," Advances in Biochemical Phychopharmacology, 8, 191 (1974).
Two hundred CD Charles River mice, weighing 20 to 30 grams, were used in this assay.
Twenty-five minutes after subcutaneous administration, and fifteen minutes after oral administration, to the mice of 10 mg per kilogram (mpk) of body weight of either a tyrosyl diamide compound of the invention (hereinafter "test compound"), or of the Jacobson Compound, 0.1 mL per 10 g of body weight of a 0.025% w/v solution of phenylbenzoquinone (PBQ) was injected intraperitoneally into each mouse. Some mice were given saline in place of a test compound, or of the Jacobson Compound, and were used as a control group.
Five minutes later, each mouse was individually placed into a glass beaker for observation, and the number of writhes occurring during the following ten-minute period was counted.
A compound was considered to be "active" (to have produced analgesia in a mouse) if, after the administration of 10 mg per kilogram (mpk) of body weight of the compound to the mouse, the number of writhes elicited by a mouse injected with PBQ was equal to, or less than, one-half the median number of writhes recorded for the saline-treated control group of mice that day, as described by R. I. Taber, supra.
The standard initial screening dose of a test compound employed in this assay was 10 mpk […] for both routes of administration. If this initial screening dose of the compound produced analgesia in seven of ten mice, then the effect of additional doses of the compound on the writhing response was evaluated, and then the ED50 value (that dose of a compound which produced analgesia in 50% of the mice to which the compound was administered) was calculated. A maximum likelihood function was used to determine the ED50 value. (The slopes of the dose-response curves for the compounds analyzed were compared as described by Tallarida and Murray, Manual of Pharmacologic Calculations, Page 1 (Springer Verlag, N.Y., 1981)).

[4] = tested on: brain opioid receptor sites; details: cited from earlier work
opioid activity = details: cited from earlier work
mice [5] = details: general statement on both tests; cited from earlier work
mice [6] = details: general statement on both tests; cited from earlier work; remark: listed apart in the source
[7] = 0.25 h, oral, PBQ i.p. 15 min after compound, read-out: ED50, Writhing Assay, Oral (p.o.)
[8] = sc, 25 min, subcutaneous, PBQ i.p. 25 min after compound, read-out: ED50, Writhing Assay, Subcutaneous (S.C.)

Chain of μ opioid receptors (P33535 whole entry): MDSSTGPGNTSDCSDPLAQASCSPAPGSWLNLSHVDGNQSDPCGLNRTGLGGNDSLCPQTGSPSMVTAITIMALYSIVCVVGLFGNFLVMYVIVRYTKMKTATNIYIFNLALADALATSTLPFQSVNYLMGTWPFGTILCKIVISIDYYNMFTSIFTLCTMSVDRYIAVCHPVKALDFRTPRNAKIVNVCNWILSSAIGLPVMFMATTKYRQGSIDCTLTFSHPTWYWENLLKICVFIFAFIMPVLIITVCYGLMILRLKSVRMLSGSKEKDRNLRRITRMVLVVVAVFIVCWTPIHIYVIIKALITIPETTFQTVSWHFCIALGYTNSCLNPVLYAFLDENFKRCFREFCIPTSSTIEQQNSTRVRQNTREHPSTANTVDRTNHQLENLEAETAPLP
Chain of δ opioid receptors (P33533 whole entry): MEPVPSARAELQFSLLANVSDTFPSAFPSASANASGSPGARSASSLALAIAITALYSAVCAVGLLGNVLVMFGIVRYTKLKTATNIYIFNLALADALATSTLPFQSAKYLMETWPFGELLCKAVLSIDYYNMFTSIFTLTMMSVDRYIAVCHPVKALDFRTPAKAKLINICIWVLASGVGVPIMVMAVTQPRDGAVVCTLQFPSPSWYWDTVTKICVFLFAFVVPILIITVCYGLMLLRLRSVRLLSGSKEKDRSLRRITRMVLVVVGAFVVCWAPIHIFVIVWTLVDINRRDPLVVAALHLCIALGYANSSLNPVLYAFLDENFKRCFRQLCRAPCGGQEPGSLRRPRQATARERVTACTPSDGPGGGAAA

| Compound | IC50 (μ opioid receptors) | IC50 (δ opioid receptors) | Mean IC50 μ/δ Ratio (δ opioid receptors) | ED50 (mice [3]; [8]) | activity in Tail Flick Assay (mice [5]) | activity in Hot Plate Assay (mice [6]) | also measured |
| --- | --- | --- | --- | --- | --- | --- | --- |
| CC(=O)N[C@@H](Cc1ccccc1)C(=O)NCC(C)(C)NC(=O)[C@@H](N)Cc1c(C)cc(O)cc1C [Example 47, αS-(Acetylamino)-N-[2-[[[2S-amino-3-(4-hydroxy-2,6-dimethylphenyl) -1-oxopropyl]amino]-2-methylpropyl]-benzenepropanamide, monohydrochloride] | 0.4 nM | 0.3 nM | 1.3 | 0.2 mg/kg | – | – | ED50 (mice [1]): 1.9 mg/kg; ED50 (mice [2]): 2.4 mg/kg; potency rank in the Writhing Assay (mice [3]): most potent compound of the invention tested; ED50 (mice [3]; [7]): 0.6 mg/kg; potency relative to the Jacobson Compound, Writhing Assay, oral (mice [3]; oral): seven times more potent; potency relative to the Jacobson Compound, Writhing Assay, subcutaneous (mice [3]; subcutaneous): eight times more potent |
| CC(=O)N[C@@H](Cc1c(C)cccc1C)C(=O)NCCNC(=O)[C@@H](N)Cc1c(C)cc(O)cc1C [Example 52, αS-(Acetylamino)-N-[2-[[2S-amino-3-(4-hydroxy-2,6-dimethylphenyl)-1-oxopropyl]amino]ethyl]-2,6-dimethylbenzeneoropanamide, hydrochloride] | 0.6 nM | 32 nM | – | 5 mg/kg | – | – | – |
| CC(=O)N[C@@H](Cc1ccccc1)C(=O)NCC(C)(C)NC(=O)[C@@H](N)Cc1c(C)cc(OC(C)=O)cc1C [Example 16, αS-(acetylamino)-N-2-[2-[[4-(acetyloxy)-2,6-dimethylphenyl]-2S-amino-1-oxopropyl]amino]-2-methylpropyl]benzenepropanamide, hydrochloride] | – | – | 0.7 | 5 mg/kg | – | – | IC50 (μ opioid receptors; read-out: Mean IC50 Value, μ, rat forebrain membranes, 3[H]-DAMPGO 2.0 nM, 37° C., pH 7.4): 0.51 nM; IC50 (δ opioid receptors; read-out: Mean IC50 Value, δ, rat forebrain membranes, 3[H]-DSLET 1.0 nM, 37° C., pH 7.4): 0.78 nM |
| CC(=O)N[C@@H](CCc1ccccc1)C(=O)NCC(C)(C)NC(=O)[C@@H](N)Cc1c(C)cc(O)cc1C [Example 18, αS-(acetylamino)-N-[2-[[2S-amino-3-(4-hydroxy-2,6-dimethylohenyl)-1-oxopropyl]amino]-2-methyloropyl]-benzenebutanamide, hydrochloride] | 0.33 nM | 4.7 nM | 0.07 | 5 mg/kg | – | – | – |
| CSCC[C@H](NC(=O)[C@H](Cc1ccccc1)NC(=O)CNC(=O)CNC(=O)[C@@H](N)Cc1ccc(O)cc1)C(=O)O [methionine enkephalin, H2 N-Tyr-Gly-Gly-Phe-Met-OH] | – | – | – | – | – | – | binding to opiate / brain opioid receptor sites [4]: bind to the same receptor sites as do the opiates; opioid / morphine-like activity (opioid activity): some weak morphine-like actions |
| Cc1cc(CC(=O)O)n(C)c1C(=O)c1ccc(Cl)cc1 [Zomax] | – | – | – | – | little activity | little activity | – |
| Cc1cc(O)cc(C)c1C[C@H](N)C(=O)NC(C)(C)CNC(=O)[C@H](Cc1ccccc1)NC(=O)OCc1ccccc1 [Example 10, Phenylmethyl[1S-[[2-[[2S-amino-3-(4-hydroxy-2,6-dimethylohenyl)-1-oxopropyl]amino]-2-methylpropyl]-amino]carbonyl]-2-phenylethyl]carbamate, monohydrochloride] | 3.3 nM | 4 nM | 0.8 | 5 mg/kg | – | – | – |
| CC(C)C[C@H](NC(=O)[C@H](Cc1ccccc1)NC(=O)CNC(=O)CNC(=O)[C@@H](N)Cc1ccc(O)cc1)C(=O)O [leucine enkephalin, H2 N-Tyr-Gly-Gly-Phe-Leu-OH] | – | – | – | – | – | – | binding to opiate / brain opioid receptor sites [4]: bind to the same receptor sites as do the opiates; opioid / morphine-like activity (opioid activity): some weak morphine-like actions |
| CC(=O)N[C@@H](Cc1ccccc1)C(=O)NCC(C)(C)NC(=O)[C@@H](N)Cc1ccc(O)cc1 [Jacobson Compound, reference compound] | 0.6 nM | 2 nM | 0.3 | 1.6 mg/kg | – | – | ED50 (mice [3]; [7]): 4.1 mg/kg |
| COc1ccc2c3c1O[C@H]1[C@@H](O)C=C[C@H]4[C@@H](C2)N(C)CC[C@@]341 [codeine] | – | – | – | – | active in both of these tests | active in both of these tests | – |
| CC(=O)Oc1ccccc1C(=O)O [aspirin] | – | – | – | – | little activity | little activity | – |
| CN1CC[C@]23c4c5ccc(O)c4O[C@H]2[C@@H](O)C=C[C@H]3[C@H]1C5 [morphine] | – | – | – | – | active in both of these tests | active in both of these tests | – |
| CNC(=O)N[C@@H](Cc1ccccc1)C(=O)NCC(C)(C)NC(=O)[C@@H](N)Cc1c(C)cc(O)cc1C [Example 37, αS-amino-N-1,1-dimethyl-2-[2S-[[(methylamino)carbonyl]amino]-1-oxo-3-phenylpropyl]amino]ethyl]-4-hydroxy-2,6-dimethylbenzeneoropanamide, monohydrochloride] | < 10 nM | ~2 nM | – | 5 mg/kg | – | – | – |
